{
  "source": "patent US8865679B2",
  "about": "(priority 2001, dated 2014)",
  "conditions_in_all_cases": "mouse, in vivo",
  "key": {"B. anthracis": {"test_system": "B. anthracis", "parameters": "species or system mouse (Balb/c)"}, "E. coli strain TVDL-rat": {"test_system": "E. coli strain TVDL-rat", "parameters": "species or system mice"}, "B. anthracis spores": {"test_system": "B. anthracis spores", "parameters": "species or system mouse (Balb/c)"}},
  "note": "Values joined by “and” are separate entries in the source; they are usually repeats but may differ in a detail not shown here. Equal values may be shown once.",
  "data": [
    {"substance": "poly-(1,6)-β-D-glucopyranosyl (1,3)β-D-glucopyranose [PGG]", "values": [
      {"measurement": "bacteria-free animals", "setting": "B. anthracis", "result": 86.4, "unit": "%"},
      {"measurement": "bacterial load in lung of surviving animals", "setting": "B. anthracis", "result": "2.6×10^5 CFU/g lung"},
      {"measurement": "survival rate", "setting": "E. coli strain TVDL-rat", "result": "90% and 75% and 70%"},
      {"measurement": "mean survival time", "setting": "B. anthracis spores", "result": "10.2 days and 11.5 days"},
      {"measurement": "number of survivors out of 22 mice", "setting": "B. anthracis spores", "result": 19},
      {"measurement": "percent survivors", "setting": "B. anthracis spores", "result": 86.36, "unit": "%"},
      {"measurement": "survival, data pooled from the two experiments", "setting": "B. anthracis spores", "result": 10.86, "unit": "days"}
    ]}
  ]
}
